Assay results taken from patent US10781203B2, “Nontoxic compounds for the treatment and prevention of herpesvirus infections” (The Penn State Research Foundation, priority 2016, dated 2020).

Columns and labels:
[1] = test system: HCMV; assay: HCMV single-step growth curve / virus titer analysis (MOI=3); type: cell-based, Human cytomegalovirus (HCMV); details: Human betaherpesvirus 5; for EC50: MOI=3, harvested at 96 hpi (FIG. 9)
Method: Infections were done at an MOI of 0.05 for multi-step growth curves and MOI 3 for single-step growth curves. Infections were done on NHDFs unless otherwise noted. Virus was incubated with cells for 2 hours before addition of fresh media. For growth curve analyses, virus was harvested at the indicated time-points for each experiment by scraping the cells into the medium, sonicating 10 times with 1 second pulses, vortexing for 15 seconds, and centrifuging at 13,000 rpm for 10 min. Supernatants were collected, aliquoted and flash-frozen in liquid nitrogen before storage at −80° C.
(§1) For MCMV growth curve analysis, samples were titrated on NIH 3T3 cells and titers were calculated using the 50% tissue culture infective dose method. Both HCMV virus stocks and samples for growth curves were titrated by serial dilutions on MRC5 cells and quantified by the immunological detection of immediate-early proteins as previously described (Britt W J. Human cytomegalovirus: propagation, quantification, and storage. Curr Protoc Microbiol. 2010; Chapter 14: Unit 14E.3). The numbers of stained nuclei were acquired on a Nikon Eclipse Ti Inverted microscope and fluorescent nuclei were quantified using the NIS Elements Software. Images of viral foci from infection of ARPE19 cells were also acquired on Eclipse Ti Inverted microscope. The number and size of foci were quantified using NIS Elements software.
^1H NMR spectra were recorded on a 500 MHz Bruker spectrometer (Billerica, Mass.) using tetramethylsilane (TMS) as the internal reference. The following abbreviations were used to designate chemical shift multiplicities: s=singlet, d=doublet, dd=double doublet, t=triplet, dt=doublet of triplet, m=multiplet. Mass Spec analysis was performed on 4000 Q trap hybrid triple quadrupole/linear ion trap instrument (Applied Biosystems/MDS Sciex) at the proteomic facility at Penn State Hershey Cancer Institute, Hershey, Pa. Thin-layer chromatography (TLC) was on aluminum-supported, precoated silica gel plates (EM Industries, Gibbstown, N.J.). 5-(2-methyl-3-thiazol-4-yl)-2-thiophencarboxaldehyde was purchased from MAYBRIDGE-Thermo Fisher (Cornwall, UK). All other starting materials were obtained from Aldrich Chemical Co. (Milwaukee, Wis.) and used without further purification. Retro94 was added to cells at 2 hpi at a concentration of 10 μM, unless otherwise indicated.

[2] = test system: MCMV; assay: Viral titers of MCMV-infected fibroblasts; type: cell-based, mouse; details: 6 dpi (FIG. 12A)
Method: FIG. 7A is a graph showing viral titers at 15 dpi of fibroblasts infected with various strains of HCMV (MOI=0.05) and treated with DMSO or Retro94 at 2 hpi. Media was changed and fresh Retro94 was added at 6 dpi. Bright field images representing CPE of above infections shown at right. FIG. 7B show HCMV-infected ARPE-19 cells (TB40, MOI=3) at 21 dpi treated with DMSO or Retro94 ([…]). Infected cells detected by monitoring mCherry (red) expressed by TB40 virus. Scale bars: 1 mm. The table below images show number of foci detected, average area and standard error of the mean. P<0.00001. […]
as §1, with “Images of viral foci from infection of ARPE19 cells were also acquired on Eclipse Ti Inverted microscope.” left out

[3] = test system: EBV; assay: EC50 against other herpesviruses: EBV; type: cell-based; details: below the lowest concentration tested (FIG. 10B)
From the text: (§2) FIGS. 10A-10B show data to provide support for Retro94 and derivatives being effective against other herpesviruses. […] Samples were harvested at 24 hpi. Representative data shown are from independent replicates. FIG. 10B provides a table showing low nanomolar EC50 values of Retro94F against other herpesviruses.

[4] = test system: KSHV; assay: EC50 against other herpesviruses: KSHV; type: cell-based; details: below the lowest concentration tested (FIG. 10B)
From the text: as §2

[5] = test system: range of viruses from diverse families; assay: EC50 against non-herpesviruses; type: cell-based; details: FIG. 11A
From the text: (§3) FIG. 11A provides a table showing EC50 values of Retro94F against a range of viruses from diverse families. […] Samples were harvested at 24, 48 and 72 hpi. Data shown is from one independent replicates.

[6] = test system: Zika virus; assay: Growth curve analysis of Zika virus; type: cell-based; details: MOI=5; 24, 48 and 72 hpi
From the text: as §3

[7] = Tolerability in mice (adverse effects, creatinine, BUN); type: in vivo, C57BL/6 mice
Method: FIGS. 13A-13B provides data to support Retro94F showing no overt toxicity in mice. FIGS. 13A and 13B, Mice were treated with […] Retro-2.1 or vehicle control one hour prior to infection with 2×10^4 PFU MuPyV, then daily until day 4 p.i.
While we obtained good results in tissue culture, developing animal models to test the inhibitors was undertaken to allow for studies to test both the properties of the compounds in a host as well as their efficacy against viruses. […] Thus, at least two mouse infection models in which to show efficacy of the compounds against infection in a host organism is provided. Administration of Retro94F to mice to monitor for potential adverse effects of the compound was undertaken. These initial studies have shown that Retro94F is well tolerated by the mice. For these studies, C57BL/6 mice were injected intraperitoneally once daily with 250 μg of Retro94F or vehicle control in 250 μl of 0.9% saline. […] Thus, the inhibitors appear to be well tolerated by mice.

[8] = test system: mouse polyomavirus; assay: Immune response of mice challenged with mouse polyomavirus; type: in vivo, B6 mice
From the text: (A-E) B6 mice were infected via hind footpads with 2×10^5 PFU of MuPyV. FIGS. 14A and 14B show the results of the percent of immune cell populations in the spleen (FIG. 14A) and kidney (FIG. 14B) analyzed at day 8 post infection between vehicle- or Retro94F-treated mice. […] FIGS. 14D-14E show the phenotype of MuPyV-specific CD8 T cells, analyzed at day 8 or day 30 post infection. KLRG1hi CD127lo (FIG. 14D) cells are short-lived effector cells, while KLRG1lo CD127hi (FIG. 14E) cells are memory-precursor effector cells.
Thus, the inhibitors appear to be well tolerated by mice.

[9] = test system: cells; assay: Cell viability after extended treatment (trypan blue, bright field); type: cell-based; details: after 96 hours of treatment
From the text: FIG. 3A is a growth curve analysis of HCMV (MOI=3) in untreated (WT), vehicle treated (DMSO) or Retro94-treated cells. Samples were harvested at 24, 48, 72, 96, 120 and 144 hpi. […] Nuclei labeled with DAPI (blue). Scale bars: 10 μm. FIG. 3C is a growth curve analysis of HCMV (MOI=0.05) in DMSO control (DMSO) or Retro94-treated cells. Samples were harvested at 3, 6, 9, 12 and 15 dpi. Asterisks indicate change of media with fresh Retro94. […] Bright field images of cell monolayers at 4 days post treatment are shown below graph. Brefeldin A was included as a positive control for cell death. Values in FIGS. 3A and 3C are from one representative experiment.
Normal human dermal fibroblasts, HDFs (Cell Applications Inc. 106-05N), and normal human lung fibroblasts, MRC-5 cells (ATCC CCL-171) were maintained in Dulbecco's modified Eagle's medium (DMEM) (Lonza). Human retinal pigmented epithelial cells (ARPE-19), maintained in DMEM/Ham's F12 (1:1 mix) (Lonza), human embryonic lung fibroblasts (HEL) and mouse embryonic fibroblasts (NIH 3T3), maintained in DMEM (Lonza) were obtained (Spector D J, Yetming K. Virology. 2010; 407(2):171-7; Spector D J. Virology. 2015, 476:345-54). All media was supplemented with 10% fetal bovine serum, 100 U/ml penicillin and 100 µg/ml streptomycin, and 2 mM GlutaMAX (Gibco). Cells were maintained at 37° C. with 5% CO2. […]

Row | Compound | EC50 [1] [nM] | IC50 ([1]; added at 2 hpi, MOI 3, 96 hpi, read-out: IC50 (HCMV titers)) [nM] | inhibition of replication of the mouse equivalent of CMV in culture [2] [%] | EC50 (EBV) [3] | EC50 (KSHV) [4] | EC50 against other viruses [5] | inhibition of Zika virus infection [6] | adverse effects ([7]; 250 μg intraperitoneally once daily for 14 straight days) | kidney function (creatinine and BUN levels) ([7]; treated mice, day 4 and day 30 p.i.) | signs of distress ([8]; challenge with mouse polyomavirus after treatment) | CD8 T cell response to the virus ([8]; day 8 or day 30 post infection) | levels of immune cells (spleen, kidney) ([8]; day 8 post infection) | cells remaining in the monolayer [9]
1 | Cc1nc(-c2ccc(C3N(C)c4ccc([N+](=O)[O-])cc4C(=O)N3c3ccccc3)s2)cs1 (centres unmarked) [DABL-NM, 6-Nitro-1-methyl-2-(5-(2-methylthiazol-4-yl)thiophen-2-yl)-3-phenyl-2,3-dihydroquinazolin-4(1H)-one] | ~20 | – | – | – | – | – | – | – | – | – | – | – | –
2 | Cc1nc(-c2ccc(C3N(C)c4ccc(F)cc4C(=O)N3c3ccccc3)s2)cs1 (centres unmarked) [Retro94F, 6-Fluoro-1-methyl-2-(5-(2-methylthiazol-4-yl)thiophen-2-yl)-3-phenyl-2,3-dihydroquinazolin-4(1H)-one] | ~20 | ~15 | 99 | low naonmolar range | low naonmolar range | high nanomolar to low micromolar range | approximately 90% | no apparent adverse effects | did not adversely affect kidney function | no signs of distress | did not alter | equivalent levels of immune cells as control treatment | –
3 | C[C@H]1CCC/C=C/[C@@H]2C[C@H](O)C[C@H]2[C@H](O)/C=C/C(=O)O1 [Brefeldin A, reference compound] | – | – | – | – | – | – | – | – | – | – | – | – | very few cells in the monolayer remained
